Source: patent publication US20250206722A1, “SMALL MOLECULE INHIBITORS OF TEA DOMAIN FAMILY MEMBERS” (The Scripps Research Institute, priority 2022, published 2025)

Legend:
[1] = test system: transcriptional activity of TEADs; assay: TEAD reporter assay (MCF7 TEAD-LUC reporter cells); assay type: cell-based; conditions: Homo sapiens, 24 hours, BrightGlo luminescence
Protocol: MCF7 TEAD-LUC reporter cells were obtained from BPS Bioscience, Inc. and cultured in DMEM medium (Corning, 10-013-CV) supplemented with 10% fetal bovine serum (Gibco, 10438-026), 1% penicillin-streptomycin (Gibco, 15070063), 1% non-essential amino acids (Gibco, 15070063), and 10 μg/mL insulin (Sigma, 10516). Cells were trypsinized, resuspended in growth medium, and diluted to a concentrated of 100,000 cells/mL. 5,000 cells, 50 μL of cell suspension, per well were then plated in a white 384-well plate (Corning) and incubated at 37° C., 5% CO2. After 24 hours incubation, 100 nL of test compounds in DMSO, 20-point 1:2 dilution starting from 20 μM (final concentration) in triplicate, were transferred to each well using an Agilent Bravo instrument outfitted with a pintool head. Cells were incubated at 37° C., 5% CO2 for 24 hours followed by the addition of 30 μL of BrightGlo (Promega; diluted 1:3 in water) to each well and luminescence values recorded using an EnVision plate reader.
The in vitro assay results of the compounds in the present invention were included in Table 1. The compounds described herein, inhibited the transcriptional activity of TEADs, as assessed by decreased luminance from a TEAD reporter cell line (MCF7 TEAD-LUC) in response to compound treatment.

NCI-H226 cells = assay: NCI-H226 proliferation assay (in house); assay type: cell-based; conditions: Homo sapiens, 120 h, 5 days, Cell TiterGlo, 20-point 1:2 dilution from 20 μM
Protocol: NCI-H226 Proliferation Assay
NCI-H226 cells were obtained from American Type Culture Collection (ATCC, CRL-5826) and cultured in RPMI 1640 with L-glutamine (Corning, 10-040-CV) supplemented with 10% fetal bovine serum (Gibco, 10438-026) and 1% penicillin-streptomycin (Gibco, 15070063). Cells were trypsinized, resuspended in growth medium, and diluted to a concentrated of 10,000 cells/mL. 500 cells, 50 μL of cell suspension, per well were then plated in a white 384-well plate (Corning) and incubated at 37° C., 5% CO2. After 24 hours incubation, 100 nL of test compounds in DMSO, 20-point 1:2 dilution starting from 20 μM (final concentration) in triplicate, were transferred to each well using an Agilent Bravo instrument outfitted with a pintool head. Cells were incubated at 37° C., 5% CO2 for 5 days followed by the addition of 30 μL of Cell TiterGlo (Promega; diluted 1:6 in water) to each well and luminescence values recorded using an EnVision plate reader. […]

SMILES	IC50 [1]	IC50 (NCI-H226 cells)
C=C(F)C(=O)N1CC=C(c2cccnc2Oc2cnc(C(F)(F)F)nc2)CC1 [Example 158, 2-fluoro-1-(2-((2-(trifluoromethyl)pyrimidin-5-yl)oxy)-3′,6′-dihydro-[3,4′-bipyridin]-1′(2′H)-yl)prop-2-en-1-one]	3.9 nM	0.027 µM
C=C(F)C(=O)N1CC=C(c2ncccc2Oc2ccc(C(F)(F)F)nc2)CC1 [Example 137, 2-fluoro-1-(3-((6-(trifluoromethyl)pyridin-3-yl)oxy)-3′,6′-dihydro-[2,4′-bipyridin]-1′(2′H)-yl)prop-2-en-1-one]	22 nM	0.243 µM
C=CC(=O)N1CCN(c2ccccc2Nc2ccc(C(F)(F)F)cc2)CC1 [Example 162, 1-(4-(2-((4-(trifluoromethyl)phenyl)amino)phenyl)piperazin-1-yl)prop-2-en-1-one]	1.1 nM	0.192 µM
C=CC(=O)N1CCN(c2ncc(O)nc2Nc2ccc(C(F)(F)F)cc2)CC1 [Example 111, 1-(4-(5-hydroxy-3-((4-(trifluoromethyl)phenyl)amino)pyrazin-2-yl)piperazin-1-yl)prop-2-en-1-one]	239 nM	5.64 µM
C=CC(=O)N1CCN(c2cnncc2Nc2ccc(C(F)(F)F)cc2)CC1 [Example 122, 1-(4-(5-((4-(trifluoromethyl)phenyl)amino)pyridazin-4-yl)piperazin-1-yl)prop-2-en-1-one]	6.8 nM	> 10 µM
C=C(F)C(=O)N1CC=C(c2nccnc2Nc2ccc(C(F)(F)F)nc2)CC1 [Example 56, 2-fluoro-1-(4-(3-((6-(trifluoromethyl)pyridin-3-yl)amino)pyrazin-2-yl)-3,6-dihydropyridin-1(2H)-yl)prop-2-en-1-one]	16.5 nM	0.145 µM
C=CC(=O)N1CCN(c2nccnc2Nc2ccc(C(F)(F)F)cc2)C[C@H]1C(N)=O [Example 19, (S)-1-acryloyl-4-(3-((4-(trifluoromethyl)phenyl)amino)pyrazin-2-yl)piperazine-2-carboxamide]	> 20000 nM	> 20 µM
C=C(C)C(=O)N1CCN(c2nccnc2Nc2ccc(C(F)(F)F)nc2)CC1 [Example 177, 2-methyl-1-(4-(3-((6-(trifluoromethyl)pyridin-3-yl)amino)pyrazin-2-yl)piperazin-1-yl)prop-2-en-1-one]	> 20000 nM	> 20 µM
C=CC(=O)N1CCN(c2nccnc2Nc2ccc(C(F)(F)F)cc2)C[C@@H]1C(N)=O [Example 18, (R)-1-acryloyl-4-(3-((4-(trifluoromethyl)phenyl)amino)pyrazin-2-yl)piperazine-2-carboxamide]	134 nM	0.701 µM
C=CC(=O)N1CCN(c2nccnc2C(=O)NC2CC(F)(F)C2)CC1 [Example 100, 3-(4-acryloylpiperazin-1-yl)-N-(3,3-difluorocyclobutyl)pyrazine-2-carboxamide]	74 nM	1.18 µM
C=CC(=O)N1CCN(c2ncccc2C(=O)c2ccc(C(F)(F)F)nc2)CC1 [Example 141, 1-(4-(3-(6-(trifluoromethyl)nicotinoyl)pyridin-2-yl)piperazin-1-yl)prop-2-en-1-one]	7.5 nM	0.5 µM
C=C(F)C(=O)N1CC=C(c2cccnc2Nc2ccc(OC(F)(F)F)nc2)CC1 [Example 148, 2-fluoro-1-(2-((6-(trifluoromethoxy)pyridin-3-yl)amino)-3′,6′-dihydro-[3,4′-bipyridin]-1′(2′H)-yl)prop-2-en-1-one]	66 nM	0.341 µM
C=CC(=O)N1CC=C(c2ncccc2Oc2ccc(C(F)(F)F)nc2)CC1 [Example 136, 1-(3-((6-(trifluoromethyl)pyridin-3-yl)oxy)-3′,6′-dihydro-[2,4′-bipyridin]-1′(2′H)-yl)prop-2-en-1-one]	66 nM	0.341 µM
N#C/C=C\C(=O)N1CCN(c2nccnc2Nc2ccc(C(F)(F)F)cc2)CC1 [Example 182, (Z)-4-oxo-4-(4-(3-((4-(trifluoromethyl)phenyl)amino)pyrazin-2-yl)piperazin-1-yl)but-2-enenitrile]	1.2 nM	0.034 µM
C=CC(=O)N1CCN(c2nccnc2C(O)c2ccc(C(F)(F)F)cc2)CC1 (stereo not drawn) [Example 97, 1-(4-(3-(hydroxy(4-(trifluoromethyl)phenyl)methyl)pyrazin-2-yl)piperazin-1-yl)prop-2-en-1-one]	3 nM	0.019 µM
C=CC(=O)N1CCN(c2ncccc2C(=O)c2ccc(C(F)(F)F)cn2)CC1 [Example 140, 1-(4-(3-(5-(trifluoromethyl)picolinoyl)pyridin-2-yl)piperazin-1-yl)prop-2-en-1-one]	8.6 nM	11.1 µM
C=CC(=O)N1CCN(c2nccnc2Nc2ccc(C(F)F)cn2)CC1 [Example 40, 1-(4-(3-((5-(difluoromethyl)pyridin-2-yl)amino)pyrazin-2-yl)piperazin-1-yl)prop-2-en-1-one]	4 nM	> 20 µM
CN(C#N)C(=O)N1CCN(c2nccnc2Nc2ccc(C(F)(F)F)cc2)CC1 [Example 185, N-cyano-N-methyl-4-(3-((4-(trifluoromethyl)phenyl)amino)pyrazin-2-yl)piperazine-1-carboxamide]	> 20000 nM	> 20 µM
C=CC(=O)N[C@H]1C[C@H](Nc2nccnc2Nc2ccc(C(F)(F)F)cc2)C1 [Example 4, N-((1r,3r)-3-((3-((4-(trifluoromethyl)phenyl)amino)pyrazin-2-yl)amino)cyclobutyl) acrylamide]	8 nM	23.9 µM
C=CC(=O)N1CCN(c2nccnc2C(=O)N2CCC(F)(F)CC2)CC1 [Example 104, 1-(4-(3-(4,4-difluoropiperidine-1-carbonyl)pyrazin-2-yl)piperazin-1-yl)prop-2-en-1-one]	2220 nM	2.74 µM
C=C(F)C(=O)N1CC=C(c2cnc(C)nc2Oc2ccc(C(F)(F)F)nc2)CC1 [Example 130, 2-fluoro-1-(4-(2-methyl-4-((6-(trifluoromethyl)pyridin-3-yl)oxy)pyrimidin-5-yl)-3,6-dihydropyridin-1(2H)-yl)prop-2-en-1-one]	1.1 nM	1.33 µM
C=CC(=O)N1CCN(c2nccnc2Oc2ccc(OC)cc2)CC1 [Example 70, 1-(4-(3-(4-methoxyphenoxy)pyrazin-2-yl)piperazin-1-yl)prop-2-en-1-one]	3 nM	0.028 µM
C=CC(=O)N1CCN(c2nccnc2Nc2ccc(OCF)cc2)CC1 [Example 36, 1-(4-(3-((4-(fluoromethoxy)phenyl)amino)pyrazin-2-yl)piperazin-1-yl)prop-2-en-1-one]	5 nM	5.04 µM
C=CC(=O)N1CCC(c2cccnc2Nc2ccc(C(F)(F)F)nc2)CC1 [Example 149, 1-(4-(2-((6-(trifluoromethyl)pyridin-3-yl)amino)pyridin-3-yl)piperidin-1-yl)prop-2-en-1-one]	164 nM	2.71 µM
C=CC(=O)N1CCC(c2ncc(C)nc2Oc2ccc(C(F)(F)F)nc2)CC1 [Example 116, 1-(4-(5-methyl-3-((6-(trifluoromethyl)pyridin-3-yl)oxy)pyrazin-2-yl)piperidin-1-yl)prop-2-en-1-one]	–	0.022 µM
C=C(F)C(=O)N1CCC(c2cncnc2Oc2ccc(C(F)(F)F)nc2)CC1 [Example 127, 2-fluoro-1-(4-(4-((6-(trifluoromethyl)pyridin-3-yl)oxy)pyrimidin-5-yl)piperidin-1-yl)prop-2-en-1-one]	–	66.8 µM
C=CC(=O)N1CC(Nc2nccnc2N2CC(c3ccc(F)cc3)C2)C1 [Example 108, 1-(3-((3-(3-(4-fluorophenyl)azetidin-1-yl)pyrazin-2-yl)amino)azetidin-1-yl)prop-2-en-1-one]	–	> 10 µM
C=CC(=O)N1CCC(c2nccn(-c3ncc(C(F)(F)F)cn3)c2=O)CC1 [Example 118, 3-(1-acryloylpiperidin-4-yl)-1-(5-(trifluoromethyl)pyrimidin-2-yl)pyrazin-2(1H)-one]	–	> 10 µM
C=C(F)C(=O)N1CCC(c2ncc(C)nc2Oc2ccc(C(F)(F)F)nc2)CC1 [Example 117, 2-fluoro-1-(4-(5-methyl-3-((6-(trifluoromethyl)pyridin-3-yl)oxy)pyrazin-2-yl)piperidin-1-yl)prop-2-en-1-one]	–	0.158 µM
C=C(F)C(=O)N1CC(Nc2nccnc2N2CC(c3ccc(F)cc3)C2)C1 [Example 109, 2-fluoro-1-(3-((3-(3-(4-fluorophenyl)azetidin-1-yl)pyrazin-2-yl)amino)azetidin-1-yl)prop-2-en-1-one]	–	> 10 µM
